{"source": "patent US20020147217A1", "about": "“The treatment of sexual dysfunction with enantiomers” (R.T. Alamo Ventures I, L.L.C., priority 2001, published 2002)", "key": {"[1]": {"biological_target": "T1, PDE6 partially purified from bovine retinal rod (Bos taurus, UniProt P11541+P23439)", "T1 construct": "from tissue; host or cells: bovine retinal rod", "T1 sequence (P11541 2-856 limits assumed)": "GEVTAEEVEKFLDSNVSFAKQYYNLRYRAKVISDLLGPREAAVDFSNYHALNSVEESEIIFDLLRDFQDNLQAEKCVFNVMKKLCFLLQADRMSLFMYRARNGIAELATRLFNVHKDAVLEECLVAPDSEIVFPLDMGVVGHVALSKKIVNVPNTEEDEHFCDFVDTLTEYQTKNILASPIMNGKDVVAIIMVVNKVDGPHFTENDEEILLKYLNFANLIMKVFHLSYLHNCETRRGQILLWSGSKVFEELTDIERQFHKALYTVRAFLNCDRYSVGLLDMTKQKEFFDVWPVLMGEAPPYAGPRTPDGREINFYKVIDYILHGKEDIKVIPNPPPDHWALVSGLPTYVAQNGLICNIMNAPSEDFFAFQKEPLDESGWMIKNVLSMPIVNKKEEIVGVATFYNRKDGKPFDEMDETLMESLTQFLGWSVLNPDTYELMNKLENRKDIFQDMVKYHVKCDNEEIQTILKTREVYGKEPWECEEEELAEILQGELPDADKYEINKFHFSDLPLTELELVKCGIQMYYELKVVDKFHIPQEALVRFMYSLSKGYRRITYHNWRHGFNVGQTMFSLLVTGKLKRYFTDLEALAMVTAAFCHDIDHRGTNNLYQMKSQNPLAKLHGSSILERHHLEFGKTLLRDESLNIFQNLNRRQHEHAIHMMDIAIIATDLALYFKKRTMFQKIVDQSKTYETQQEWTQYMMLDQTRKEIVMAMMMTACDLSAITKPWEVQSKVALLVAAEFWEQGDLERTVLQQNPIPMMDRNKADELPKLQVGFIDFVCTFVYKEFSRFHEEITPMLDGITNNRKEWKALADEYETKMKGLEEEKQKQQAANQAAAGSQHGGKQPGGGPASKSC", "T1 sequence (P23439 2-850 limits assumed)": "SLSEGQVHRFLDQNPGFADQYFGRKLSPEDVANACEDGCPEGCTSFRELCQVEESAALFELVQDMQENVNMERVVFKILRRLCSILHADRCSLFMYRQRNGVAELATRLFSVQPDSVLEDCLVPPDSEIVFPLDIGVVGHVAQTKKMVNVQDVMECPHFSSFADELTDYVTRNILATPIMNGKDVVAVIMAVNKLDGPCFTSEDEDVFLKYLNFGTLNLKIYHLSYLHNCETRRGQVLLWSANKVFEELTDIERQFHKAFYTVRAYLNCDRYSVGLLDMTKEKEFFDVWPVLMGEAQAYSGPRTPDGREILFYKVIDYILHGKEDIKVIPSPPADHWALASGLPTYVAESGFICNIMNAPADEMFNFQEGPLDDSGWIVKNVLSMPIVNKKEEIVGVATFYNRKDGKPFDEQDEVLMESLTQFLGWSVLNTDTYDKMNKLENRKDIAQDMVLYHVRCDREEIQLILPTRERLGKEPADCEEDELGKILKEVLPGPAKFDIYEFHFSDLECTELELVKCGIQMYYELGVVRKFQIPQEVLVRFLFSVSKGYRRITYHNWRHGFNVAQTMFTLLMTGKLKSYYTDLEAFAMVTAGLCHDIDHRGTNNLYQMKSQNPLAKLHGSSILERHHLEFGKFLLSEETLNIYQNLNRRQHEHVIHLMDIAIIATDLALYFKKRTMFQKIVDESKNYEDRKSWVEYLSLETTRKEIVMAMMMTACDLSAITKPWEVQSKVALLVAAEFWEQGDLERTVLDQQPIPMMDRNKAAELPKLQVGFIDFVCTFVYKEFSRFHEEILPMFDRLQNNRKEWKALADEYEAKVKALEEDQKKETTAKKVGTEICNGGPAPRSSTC", "assay": "PDE6 inhibition assay, Viagra versus racemic flosequinan (Example 1)", "assay_type": "biochemical", "method": "PDE6 partially purified from bovine retinal rod and activated by trypsin was used. In four separate reactions, Viagra at molar concentrations of 0.3 μM, 1.0 μM, and 3.0 μM, and a 100 μM racemic mixture of flosequinan were incubated with 0.2 μg/ml active PDE6 and 100 μM cGMP containing 0.1 μM [^3H]cGMP in Tris buffer pH 7.5 for 20 minutes at 30° C. Each reaction was terminated by raising the temperature to 100° C. for 2 minutes. The resulting GMP was converted to guanosine by addition of 10 mg/ml snake venom nucleotidase and further incubated at 30° C. for 10 minutes. Unhydrolyzed cGMP was bound to AGI-X2 resin, and [^3H]guanosine remaining in the aqueous phase was quantitated by scintillation counting."}, "[2]": {"biological_target": "T2, PDE1 partially purified from bovine heart (Bos taurus, UniProt P14100)", "T2 construct": "PDE1 partially purified from bovine heart was used; from tissue; host or cells: bovine heart", "T2 sequence (P14100 1-514 isoform P14100-2)": "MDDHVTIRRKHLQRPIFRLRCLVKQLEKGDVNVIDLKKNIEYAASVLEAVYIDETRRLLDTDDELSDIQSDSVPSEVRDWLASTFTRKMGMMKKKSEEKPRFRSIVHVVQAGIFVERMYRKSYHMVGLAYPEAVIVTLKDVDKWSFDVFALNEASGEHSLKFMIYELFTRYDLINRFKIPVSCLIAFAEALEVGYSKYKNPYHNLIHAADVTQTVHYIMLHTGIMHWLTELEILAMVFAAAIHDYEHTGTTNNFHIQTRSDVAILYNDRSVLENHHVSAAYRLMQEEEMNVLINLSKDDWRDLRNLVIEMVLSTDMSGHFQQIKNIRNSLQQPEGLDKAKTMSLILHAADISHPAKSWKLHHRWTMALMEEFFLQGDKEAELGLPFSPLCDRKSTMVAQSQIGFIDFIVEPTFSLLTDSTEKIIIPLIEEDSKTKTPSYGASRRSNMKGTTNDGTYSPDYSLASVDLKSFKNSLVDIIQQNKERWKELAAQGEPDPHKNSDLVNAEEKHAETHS", "assay": "PDE1 enzyme inhibition assay (Example 3)", "assay_type": "biochemical", "method": "(§1) In this example, a racemic mixture of flosequinan and the (+) and (−) enantiomers of flosequinan were subjected to biochemical enzyme assays to determine their respective percent inhibition of a variety of phosphodiesterases (PDE1-PDE6). The reaction conditions for each PDE assay were as follows.\n(§2) PDE1: PDE1 partially purified from bovine heart was used. A racemic mixture of flosequinan, and each enantiomer of flosequinan, all at a molar concentration of 100 μM, were independently incubated with 13 μg PDE1 enzyme, 1.0 μM [^3H]cAMP and CaCl2/calmodulin in Tris buffer pH 7.5 for 20 minutes at 30° C. The reaction was terminated by boiling for 2 minutes, and the resulting AMP was converted to adenosine by addition of 10 mg/ml snake venom nucleotidase and further incubation at 30° C. for 10 minutes. Unhydrolyzed cAMP was bound to AGI-X2 resin, and the remaining [^3H]adenosine in the aqueous phase was quantitated by scintillation counting."}, "[3]": {"biological_target": "T3, PDE2 partially purified from human platelets (Homo sapiens, UniProt O00408)", "T3 construct": "PDE2 partially purified from human platelets was used; from tissue; host or cells: human platelets", "T3 sequence (O00408 whole entry)": "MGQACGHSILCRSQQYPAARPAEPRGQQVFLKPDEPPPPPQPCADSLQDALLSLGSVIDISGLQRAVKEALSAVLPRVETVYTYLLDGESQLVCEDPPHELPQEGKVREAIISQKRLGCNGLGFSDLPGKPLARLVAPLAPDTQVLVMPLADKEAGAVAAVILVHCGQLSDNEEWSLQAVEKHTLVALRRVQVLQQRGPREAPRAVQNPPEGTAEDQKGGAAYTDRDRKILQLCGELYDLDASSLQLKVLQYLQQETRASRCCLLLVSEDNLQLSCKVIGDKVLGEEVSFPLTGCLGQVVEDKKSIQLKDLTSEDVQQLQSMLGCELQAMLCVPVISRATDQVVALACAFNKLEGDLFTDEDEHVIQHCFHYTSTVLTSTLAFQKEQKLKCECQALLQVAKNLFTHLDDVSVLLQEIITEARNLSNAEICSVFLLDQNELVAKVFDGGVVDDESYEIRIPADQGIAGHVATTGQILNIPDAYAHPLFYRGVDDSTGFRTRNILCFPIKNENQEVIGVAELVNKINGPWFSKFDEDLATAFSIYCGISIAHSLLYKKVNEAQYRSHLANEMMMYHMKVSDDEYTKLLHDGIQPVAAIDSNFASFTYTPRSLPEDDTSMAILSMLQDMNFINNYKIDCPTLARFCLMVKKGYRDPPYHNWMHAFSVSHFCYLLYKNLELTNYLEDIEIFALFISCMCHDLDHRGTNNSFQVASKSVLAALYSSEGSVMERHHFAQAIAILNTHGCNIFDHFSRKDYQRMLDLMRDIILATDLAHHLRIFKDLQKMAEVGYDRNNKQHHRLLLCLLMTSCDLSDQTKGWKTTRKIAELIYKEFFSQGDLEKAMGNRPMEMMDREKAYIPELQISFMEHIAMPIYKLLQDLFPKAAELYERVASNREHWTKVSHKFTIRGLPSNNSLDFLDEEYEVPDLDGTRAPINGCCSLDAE", "assay": "PDE2 enzyme inhibition assay (Example 3)", "assay_type": "biochemical", "settings": "for % Inhibition of PDE2: 100 μM", "method": "as §1\nas §2, with “PDE2: PDE2” for “PDE1: PDE1”, “human platelets” for “bovine heart”, “23” for “13”, “PDE2” for “PDE1”, “25 μM cAMP containing 0.05” for “1.0”, “[^3H]cAMP” for “[^3H]cAMP and CaCl2/calmodulin”"}, "[4]": {"biological_target": "T4, PDE3 partially purified from human platelets (Homo sapiens, UniProt Q14432)", "T4 construct": "PDE3 partially purified from human platelets was used; from tissue; host or cells: human platelets", "T4 sequence (Q14432 whole entry)": "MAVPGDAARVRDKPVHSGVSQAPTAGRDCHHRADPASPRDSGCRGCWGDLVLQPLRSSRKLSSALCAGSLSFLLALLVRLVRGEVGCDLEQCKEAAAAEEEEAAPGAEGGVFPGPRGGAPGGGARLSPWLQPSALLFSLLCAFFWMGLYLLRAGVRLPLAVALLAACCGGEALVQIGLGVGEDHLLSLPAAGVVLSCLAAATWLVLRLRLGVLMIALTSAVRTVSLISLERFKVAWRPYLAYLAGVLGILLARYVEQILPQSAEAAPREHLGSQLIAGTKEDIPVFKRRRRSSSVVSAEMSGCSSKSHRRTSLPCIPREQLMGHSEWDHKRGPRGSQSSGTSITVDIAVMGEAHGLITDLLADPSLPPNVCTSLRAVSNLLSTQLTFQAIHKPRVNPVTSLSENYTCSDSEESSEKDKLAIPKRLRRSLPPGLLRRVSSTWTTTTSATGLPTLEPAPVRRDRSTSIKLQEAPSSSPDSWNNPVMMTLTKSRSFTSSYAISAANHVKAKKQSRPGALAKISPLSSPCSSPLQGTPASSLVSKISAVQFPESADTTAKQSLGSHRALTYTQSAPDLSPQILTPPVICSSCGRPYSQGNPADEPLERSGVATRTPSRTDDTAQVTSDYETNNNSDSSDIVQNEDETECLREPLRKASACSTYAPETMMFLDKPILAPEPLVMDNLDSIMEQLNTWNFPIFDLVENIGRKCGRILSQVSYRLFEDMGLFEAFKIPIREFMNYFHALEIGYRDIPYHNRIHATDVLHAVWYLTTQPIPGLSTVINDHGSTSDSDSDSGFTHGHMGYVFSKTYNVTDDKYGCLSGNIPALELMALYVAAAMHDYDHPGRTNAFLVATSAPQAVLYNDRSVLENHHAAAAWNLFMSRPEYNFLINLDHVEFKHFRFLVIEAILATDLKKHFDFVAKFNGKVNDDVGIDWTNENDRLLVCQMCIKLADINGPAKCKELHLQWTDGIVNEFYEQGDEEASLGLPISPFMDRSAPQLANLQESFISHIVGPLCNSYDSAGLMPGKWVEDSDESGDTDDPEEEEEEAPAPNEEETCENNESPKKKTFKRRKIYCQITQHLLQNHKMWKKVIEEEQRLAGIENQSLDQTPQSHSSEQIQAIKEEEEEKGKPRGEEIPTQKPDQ", "assay": "PDE3 enzyme inhibition assay (Example 3)", "assay_type": "biochemical", "method": "as §1\nas §2, with “PDE3: PDE3” for “PDE1: PDE1”, “human platelets” for “bovine heart”, “PDE3 enzyme and 1 μM cAMP containing 0.01” for “PDE1 enzyme, 1.0”, “[^3H]cAMP” for “[^3H]cAMP and CaCl2/calmodulin”"}, "[5]": {"test_system": "PDE4 partially purified from human U-937 pronocytic cells", "assay": "PDE4 enzyme inhibition assay (Example 3)", "assay_type": "biochemical", "settings": "100 μM", "method": "as §1\nas §2, with “PDE4: PDE4” for “PDE1: PDE1”, “human U-937 pronocytic cells” for “bovine heart”, “20” for “13”, “PDE4 enzyme and 1 μM cAMP containing 0.01” for “PDE1 enzyme, 1.0”, “[^3H]cAMP” for “[^3H]cAMP and CaCl2/calmodulin”"}, "[6]": {"biological_target": "T5, PDE5 partially purified from human platelets (Homo sapiens, UniProt O76074)", "T5 construct": "PDE5 partially purified from human platelets was used; from tissue; host or cells: human platelets", "assay": "PDE5 enzyme inhibition assay (Example 3)", "assay_type": "biochemical", "settings": "for % Inhibition of PDE5: 100 μM", "method": "as §1\nPDE5: PDE5 partially purified from human platelets was used. A racemic mixture of flosequinan, and each enantiomer of flosequinan, all at a molar concentration of 100 μM, were independently incubated with 120 μg PDE5 enzyme and 1 μM cGMP containing 0.01 μM [^3H]cGMP in Tris buffer pH 7.5 for 20 minutes at 30° C. The reaction was terminated by boiling for 2 minutes, and the resulting GMP was converted to guanosine by addition of 10 mg/ml snake venom nucleotidase and further incubation at 30° C. for 10 minutes. Unhydrolyzed cGMP was bound to AGI-X2 resin, and the remaining [^3H]guanosine in the aqueous phase was quantitated by scintillation counting."}, "[7]": {"biological_target": "T1, PDE6 partially purified from bovine retinal rod", "assay": "PDE6 enzyme inhibition assay (Example 3)", "assay_type": "biochemical", "settings": "for % Inhibition of PDE6: 100 μM", "method": "as §1\nPDE6: PDE6 partially purified from bovine retinal rod and activated by trypsin was used. A racemic mixture of flosequinan, and each enantiomer of flosequinan, all at a molar concentration of 100 μM, were independently incubated with 0.2 μg/ml active PDE6 and 100 μM cGMP containing 0.1 μM [^3H]cGMP in Tris buffer pH 7.5 for 20 minutes at 30° C. Each reaction was terminated by boiling for 2 minutes. The resulting GMP was converted to guanosine by addition of 10 mg/ml snake venom nucleotidase, and further incubated at 30° C. for 10 minutes. Unhydrolyzed cGMP was bound to AGI-X2 resin, and [^3H]guanosine remaining in the aqueous phase was quantitated by scintillation counting."}, "[8]": {"settings": "in vivo, po"}, "[9]": {"assay": "Plasma levels following oral administration"}}, "note": "Where a name gives a salt, the structure may show the parent alone. Read-outs that look alike come from different tables or passages of the source."}
{"smiles": "Cn1cc([S+](C)[O-])c(=O)c2ccc(F)cc21", "note": "(racemic) [Flosequinan, 7-fluoro-1-methyl-3-(methylsulphinyl)-4(1H)-quinolone, reference compound]", "values": [{"measurement": "inhibition at 100 µM", "setting": "[1]; 100 μM compound", "result": 36, "unit": "%"}, {"measurement": "IC50", "setting": "[1]; read-out: Concentration required for around 50% inhibition of PDE6", "result": "> 100", "unit": "µM"}, {"measurement": "Times more compound on a molar basis than Viagra needed for around 50% PDE6 inhibition", "setting": "[1]; versus Viagra 0.3 μM", "result": "more than 300 times"}, {"measurement": "inhibition at 100 µM", "setting": "[2]", "result": 31, "unit": "%"}, {"measurement": "inhibition at 100 µM", "setting": "[3]", "result": 18, "unit": "%"}, {"measurement": "inhibition at 100 µM", "setting": "[4]; 100 μM", "result": 26, "unit": "%"}, {"measurement": "% Inhibition of PDE4", "setting": "[5]", "result": 24, "unit": "%"}, {"measurement": "inhibition at 100 µM", "setting": "[6]", "result": 11, "unit": "%"}, {"measurement": "inhibition at 100 µM", "setting": "[7]", "result": 21, "unit": "%"}]}
{"smiles": "Cn1cc([S+](C)[O-])c(=O)c2ccc(F)cc21", "note": "(single isomer, unassigned; (-)) [(−)-flosequinan]", "values": [{"measurement": "% Inhibition of PDE1", "setting": "[2]; 100 μM", "result": 11, "unit": "%"}, {"measurement": "% Inhibition of PDE2", "setting": "[3]", "result": 13, "unit": "%"}, {"measurement": "% Inhibition of PDE3", "setting": "[4]; 100 μM", "result": 5, "unit": "%"}, {"measurement": "% Inhibition of PDE4", "setting": "[5]", "result": 1, "unit": "%"}, {"measurement": "% Inhibition of PDE5", "setting": "[6]", "result": 10, "unit": "%"}, {"measurement": "% Inhibition of PDE6", "setting": "[7]", "result": 21, "unit": "%"}]}
{"smiles": "Cn1cc([S@@+](C)[O-])c(=O)c2ccc(F)cc21", "note": "[(+)-flosequinan]", "values": [{"measurement": "% Inhibition of PDE1", "setting": "[2]; 100 μM", "result": 28, "unit": "%"}, {"measurement": "PDE1 inhibitory activity compared with the (−) enantiomer", "setting": "[2]; 100 μM", "result": "more PDE1 and PDE3 inhibitory activity"}, {"measurement": "% Inhibition of PDE2", "setting": "[3]", "result": 18, "unit": "%"}, {"measurement": "% Inhibition of PDE3", "setting": "[4]; 100 μM", "result": 32, "unit": "%"}, {"measurement": "PDE3 inhibitory activity compared with the (−) enantiomer", "setting": "[4]; 100 μM", "result": "more PDE1 and PDE3 inhibitory activity"}, {"measurement": "Increase in PDE3 inhibition compared to the (−) enantiomer", "setting": "[4]; same molar concentration", "result": "eight-fold"}, {"measurement": "PDE3 inhibition compared with racemic mixture of flosequinan", "setting": "[4]; same molar concentration", "result": "greater inhibition of PDE3 than a racemic mixture of flosequinan"}, {"measurement": "% Inhibition of PDE4", "setting": "[5]", "result": 6, "unit": "%"}, {"measurement": "% Inhibition of PDE5", "setting": "[6]", "result": 17, "unit": "%"}, {"measurement": "% Inhibition of PDE6", "setting": "[7]", "result": 22, "unit": "%"}, {"measurement": "Time of peak plasma concentration", "setting": "[8]", "result": "1 to 2", "unit": "h"}]}
{"smiles": "CCCc1nn(C)c2c(=O)[nH]c(-c3cc(S(=O)(=O)N4CCN(C)CC4)ccc3OCC)nc12", "note": "[Viagra, Sildenafil citrate]", "values": [{"measurement": "inhibition at 0.3 µM", "setting": "[1]; read-out: % Inhibition of PDE6, 0.3 μM compound", "result": "~50", "unit": "%"}, {"measurement": "inhibition at 1 µM", "setting": "[1]; read-out: % Inhibition of PDE6, 1.0 μM compound", "result": 62, "unit": "%"}, {"measurement": "inhibition at 3 µM", "setting": "[1]; read-out: % Inhibition of PDE6, 3.0 μM compound", "result": 87, "unit": "%"}]}
{"smiles": "CSc1cn(C)c2cc(F)ccc2c1=O", "note": "[metabolite]", "values": [{"measurement": "Time of peak plasma concentration", "setting": "[9]", "result": "about seven"}]}
